Converted amounts (≈) assume the structure as drawn. Read-outs that look alike come from different tables or passages of the source.
Tests used:
[1] = target: T1, full-length beta-Catenin (Uniprot ID P35222) (Homo sapiens, UniProt P35222); test: Fluorescence polarization IC50 (beta-catenin / 5FAM-TCF4 10-53 competition); type: binding; conditions: fluorescence polarization; read-out: beta-Catenin FP IC50
T1 construct: 10 nM full-length beta-Catenin (Uniprot ID P35222)
T1 sequence (P35222 1-781): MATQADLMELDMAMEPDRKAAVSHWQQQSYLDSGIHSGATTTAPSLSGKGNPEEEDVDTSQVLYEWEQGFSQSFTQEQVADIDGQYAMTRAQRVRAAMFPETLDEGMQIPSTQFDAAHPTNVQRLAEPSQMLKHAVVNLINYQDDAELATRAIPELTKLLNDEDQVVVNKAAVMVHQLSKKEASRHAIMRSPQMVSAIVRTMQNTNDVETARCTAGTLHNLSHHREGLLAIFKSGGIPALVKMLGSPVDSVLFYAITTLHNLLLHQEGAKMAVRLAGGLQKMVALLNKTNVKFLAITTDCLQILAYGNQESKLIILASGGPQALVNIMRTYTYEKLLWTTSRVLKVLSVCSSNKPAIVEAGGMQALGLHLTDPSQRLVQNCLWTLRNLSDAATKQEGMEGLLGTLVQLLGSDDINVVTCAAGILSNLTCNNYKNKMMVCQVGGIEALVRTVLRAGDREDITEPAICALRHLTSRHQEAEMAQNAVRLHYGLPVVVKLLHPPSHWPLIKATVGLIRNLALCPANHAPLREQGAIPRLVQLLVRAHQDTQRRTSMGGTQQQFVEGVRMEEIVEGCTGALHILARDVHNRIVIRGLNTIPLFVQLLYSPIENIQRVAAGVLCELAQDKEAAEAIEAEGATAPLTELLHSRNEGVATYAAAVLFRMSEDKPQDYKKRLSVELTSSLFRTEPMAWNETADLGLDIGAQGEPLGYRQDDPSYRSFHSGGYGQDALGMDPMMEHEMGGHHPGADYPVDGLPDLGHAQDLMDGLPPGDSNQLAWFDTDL

Solubility in PBS = type: physicochemical
How it was run: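 The PBS solution was ultracentrifuged and the supernatant analyzed by HPLC. Its peak area was divided by that of a 50 μM peptide DMSO reference injection and multiplied by 50 uM to give solubility.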

[2] = target: T2, beta-catenin/TCF4 engagement (Homo sapiens, UniProt P35222); test: Nano-BRET target engagement assay (B-cat-Halo & TCF4-Luc in HEK293 cells); type: cell-based; conditions: absolute IC50; read-out: NanoBRET Abs IC50
T2 construct: expressed in transfected cells; host or cells: HEK293
T2 sequence (P35222 1-781): T1 sequence (P35222 1-781)

Row | IC50 [1] [nM] | Solubility (Solubility in PBS) [µM] | IC50 [2] [nM] | Solubility (Solubility in PBS; Solubility (uM)) [µM] | Compound
1 | 13 | 10 (≈ 20.2 µg/mL) | > 20000 |  | CC(=O)N1CCC[C@]12CC=CCCCC1(CCCC=CCCCOC(=O)N3CC[C@@](C(=O)N[C@@H](Cc4ccccc4Cl)C(=O)N[C@@H](Cc4csc5ccccc45)C(=O)N[C@@H](CC(C)C)C(N)=O)(C3)NC(=O)[C@H]([C@@H](C)O)NC(=O)[C@H](Cc3ccccc3)NC(=O)[C@H](C)NC(=O)[C@H](CCCCNC(C)C)NC(=O)[C@H](CC(=O)O)NC(=O)[C@H](CC(=O)O)NC1=O)NC(=O)[C@H](CC(C)(C)C)NC(=O)[C@H](CC(=O)O)NC2=O (stereo partly drawn) [I-1274, Ac-PL3-Asp-Npg-B5-Asp-Asp-iPrLys-Ala-Phe-Thr-PyrS2-2C1F-BztA-Leu-NH2]
2 | 10 |  | 18000 | 25 (≈ 50.1 µg/mL) | CC(=O)N1CCC[C@]12CC=CCCCC1(CCCC=CCCCOC(=O)N3CC[C@@](C(=O)N[C@@H](Cc4ccccc4Cl)C(=O)N[C@@H](Cc4csc5ccccc45)C(=O)N[C@@H](CCC(N)=O)C(N)=O)(C3)NC(=O)[C@H](CCCCNC(C)C)NC(=O)[C@H](Cc3ccccc3)NC(=O)[C@H](C)NC(=O)[C@H](C)NC(=O)[C@H](CC(=O)O)NC(=O)[C@H](CC(=O)O)NC1=O)NC(=O)[C@H](CC(C)(C)C)NC(=O)[C@H](CC(=O)O)NC2=O (stereo partly drawn) [I-1278, Ac-PL3-Asp-Npg-B5-Asp-Asp-Ala-Ala-Phe-iPrLys-PyrS2-2C1F-BztA-Gln-NH2]
3 | 12 |  | 22900 | 14 (≈ 27.7 µg/mL) | CC(=O)N1CCC[C@]12CC=CCCCC1(CCCC=CCCCOC(=O)N3CC[C@@](C(=O)N[C@@H](Cc4ccccc4Cl)C(=O)N[C@@H](Cc4csc5ccccc45)C(=O)N[C@H](C(N)=O)[C@@H](C)O)(C3)NC(=O)[C@H](CCCCNC(C)C)NC(=O)[C@H](Cc3ccccc3)NC(=O)[C@H](C)NC(=O)[C@H](C)NC(=O)[C@H](CC(=O)O)NC(=O)[C@H](CC(=O)O)NC1=O)NC(=O)[C@H](CC(C)(C)C)NC(=O)[C@H](CC(=O)O)NC2=O (stereo partly drawn) [I-1279, Ac-PL3-Asp-Npg-B5-Asp-Asp-Ala-Ala-Phe-iPrLys-PyrS2-2C1F-BztA-Thr-NH2]
4 | 22 | 10 (≈ 19.9 µg/mL) | 24700 |  | CC(=O)N1CCC[C@]12CC=CCCCC1(CCCC=CCCCOC(=O)N3CC[C@@](C(=O)N[C@@H](Cc4ccccc4Cl)C(=O)N[C@@H](Cc4csc5ccccc45)C(=O)N[C@@H](CC(C)C)C(N)=O)(C3)NC(=O)[C@H](CCCCNC(C)C)NC(=O)[C@H](Cc3ccccc3)NC(=O)[C@H](C)NC(=O)[C@H](C)NC(=O)[C@H](CC(=O)O)NC(=O)[C@H](CC(=O)O)NC1=O)NC(=O)[C@H](CC(C)(C)C)NC(=O)[C@H](CC(=O)O)NC2=O (stereo partly drawn) [I-1280, Ac-PL3-Asp-Npg-B5-Asp-Asp-Ala-Ala-Phe-iPrLys-PyrS2-2C1F-BztA-Leu-NH2]
5 | 10 |  | 22200 | 14 (≈ 28.2 µg/mL) | CC(=O)N1CCC[C@]12CC=CCCCC1(CCCC=CCCCOC(=O)N3CC[C@@](C(=O)N[C@@H](Cc4ccccc4Cl)C(=O)N[C@@H](Cc4csc5ccccc45)C(=O)N[C@@H](CCC(N)=O)C(N)=O)(C3)NC(=O)[C@H](CCCCNC(C)C)NC(=O)[C@H](Cc3ccccc3)NC(=O)[C@H](C)NC(=O)[C@H](C)NC(=O)[C@H](CCC(=O)O)NC(=O)[C@H](CC(=O)O)NC1=O)NC(=O)[C@H](CC(C)(C)C)NC(=O)[C@H](CC(=O)O)NC2=O (stereo partly drawn) [I-1281, Ac-PL3-Asp-Npg-B5-Asp-Glu-Ala-Ala-Phe-iPrLys-PyrS2-2C1F-BztA-Gln-NH2]
6 | 34 |  | 43100 | 24 (≈ 47.8 µg/mL) | CC(=O)N1CCC[C@]12CC=CCCCC1(CCCC=CCCCOC(=O)N3CC[C@@](C(=O)N[C@@H](Cc4ccccc4Cl)C(=O)N[C@@H](Cc4csc5ccccc45)C(=O)N[C@H](C(N)=O)[C@@H](C)O)(C3)NC(=O)[C@H](CCCCNC(C)C)NC(=O)[C@H](Cc3ccccc3)NC(=O)[C@H](C)NC(=O)[C@H](C)NC(=O)[C@H](CCC(=O)O)NC(=O)[C@H](CC(=O)O)NC1=O)NC(=O)[C@H](CC(C)(C)C)NC(=O)[C@H](CC(=O)O)NC2=O (stereo partly drawn) [I-1282, Ac-PL3-Asp-Npg-B5-Asp-Glu-Ala-Ala-Phe-iPrLys-PyrS2-2C1F-BztA-Thr-NH2]
